# Laboratory results taken from publication PMC9329436, “Optimization of the 4-anilinoquin(az)oline scaffold as epidermal growth factor receptor (EGFR) inhibitors for chordoma utilizing a toxicology profiling assay platform” (Scientific Reports, 2022).
# Like-named read-outs stand apart in the source and are kept apart here.
# Assays:
# Format in all cases: biochemical
# [1] = molecular target: T1, 320 wild-type protein kinases (Homo sapiens, UniProt Q8NG66); settings: singlicate
# T1 sequence (Q8NG66 1-645): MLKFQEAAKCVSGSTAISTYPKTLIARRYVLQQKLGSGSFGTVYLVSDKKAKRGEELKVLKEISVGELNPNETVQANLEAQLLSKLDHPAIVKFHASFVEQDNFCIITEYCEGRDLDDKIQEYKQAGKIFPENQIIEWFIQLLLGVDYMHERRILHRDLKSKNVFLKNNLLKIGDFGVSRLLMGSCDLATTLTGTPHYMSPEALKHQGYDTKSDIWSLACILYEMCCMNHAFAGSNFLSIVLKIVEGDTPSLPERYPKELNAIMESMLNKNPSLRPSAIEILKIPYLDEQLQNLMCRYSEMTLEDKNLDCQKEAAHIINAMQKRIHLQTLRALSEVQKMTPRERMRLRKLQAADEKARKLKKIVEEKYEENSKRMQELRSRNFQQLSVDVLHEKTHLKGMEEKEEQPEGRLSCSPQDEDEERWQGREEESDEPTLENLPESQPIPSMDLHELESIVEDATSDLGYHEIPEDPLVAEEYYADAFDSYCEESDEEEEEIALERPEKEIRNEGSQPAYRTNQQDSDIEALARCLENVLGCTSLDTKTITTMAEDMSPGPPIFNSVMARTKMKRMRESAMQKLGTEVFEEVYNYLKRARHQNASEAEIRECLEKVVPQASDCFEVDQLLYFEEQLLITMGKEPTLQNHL
# Source text: (§1) Table S4. Profiling of two compounds at two concentrations against 320 wild-type protein kinases; singlicate measurement; Residual activities (% of control).
# [2] = molecular target: 320 wild-type protein kinases (Homo sapiens, UniProt Q02763); settings: kinase TIE2, singlicate
# Source text: as §1
# [3] = molecular target: 320 wild-type protein kinases (Homo sapiens, UniProt P23443); settings: kinase S6K, singlicate
# Sequence of 320 wild-type protein kinases (Homo sapiens, UniProt P23443) (P23443 whole entry): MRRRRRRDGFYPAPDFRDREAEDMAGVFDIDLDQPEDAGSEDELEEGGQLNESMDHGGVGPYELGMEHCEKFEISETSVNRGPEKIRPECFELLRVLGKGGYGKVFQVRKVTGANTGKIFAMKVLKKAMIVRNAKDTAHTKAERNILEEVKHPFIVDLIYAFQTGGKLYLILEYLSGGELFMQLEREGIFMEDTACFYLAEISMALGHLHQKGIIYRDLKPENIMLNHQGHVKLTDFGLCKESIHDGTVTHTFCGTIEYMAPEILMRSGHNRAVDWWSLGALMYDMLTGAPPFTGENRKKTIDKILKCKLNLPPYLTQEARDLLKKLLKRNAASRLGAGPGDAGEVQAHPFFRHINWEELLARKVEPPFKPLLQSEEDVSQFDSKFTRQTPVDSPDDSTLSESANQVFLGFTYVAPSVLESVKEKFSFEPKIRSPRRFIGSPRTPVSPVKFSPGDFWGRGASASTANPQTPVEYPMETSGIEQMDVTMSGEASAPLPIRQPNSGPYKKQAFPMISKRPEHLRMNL
# Source text: as §1
# [4] = molecular target: 320 wild-type protein kinases (Homo sapiens, UniProt P51812); settings: kinase RPS6KA3, singlicate
# Sequence of 320 wild-type protein kinases (Homo sapiens, UniProt P51812) (P51812 whole entry): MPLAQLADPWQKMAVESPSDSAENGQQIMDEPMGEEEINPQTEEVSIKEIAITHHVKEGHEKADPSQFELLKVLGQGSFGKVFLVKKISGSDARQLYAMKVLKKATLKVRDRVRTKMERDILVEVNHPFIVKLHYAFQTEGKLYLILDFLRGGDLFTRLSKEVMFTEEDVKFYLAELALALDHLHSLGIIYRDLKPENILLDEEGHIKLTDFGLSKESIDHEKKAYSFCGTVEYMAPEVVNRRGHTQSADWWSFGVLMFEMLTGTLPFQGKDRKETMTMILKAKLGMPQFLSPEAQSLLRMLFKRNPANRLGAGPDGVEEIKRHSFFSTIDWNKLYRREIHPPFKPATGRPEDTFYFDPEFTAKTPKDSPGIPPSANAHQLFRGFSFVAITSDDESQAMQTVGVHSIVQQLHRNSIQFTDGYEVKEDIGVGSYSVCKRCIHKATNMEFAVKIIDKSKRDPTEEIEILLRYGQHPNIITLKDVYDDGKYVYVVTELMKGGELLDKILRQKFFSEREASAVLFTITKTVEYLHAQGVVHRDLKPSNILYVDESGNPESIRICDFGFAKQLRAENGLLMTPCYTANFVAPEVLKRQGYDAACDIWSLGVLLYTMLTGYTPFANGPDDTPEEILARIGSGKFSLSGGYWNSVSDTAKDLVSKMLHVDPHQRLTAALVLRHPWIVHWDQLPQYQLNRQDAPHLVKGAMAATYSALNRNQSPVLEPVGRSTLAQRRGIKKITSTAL
# Source text: as §1
# [5] = molecular target: 320 wild-type protein kinases (Homo sapiens, UniProt Q96SB4); settings: kinase SRPK1, singlicate
# Source text: as §1
# [6] = molecular target: 320 wild-type protein kinases (Homo sapiens, UniProt Q15375); settings: singlicate
# Sequence of 320 wild-type protein kinases (Homo sapiens, UniProt Q15375) (Q15375 28-998): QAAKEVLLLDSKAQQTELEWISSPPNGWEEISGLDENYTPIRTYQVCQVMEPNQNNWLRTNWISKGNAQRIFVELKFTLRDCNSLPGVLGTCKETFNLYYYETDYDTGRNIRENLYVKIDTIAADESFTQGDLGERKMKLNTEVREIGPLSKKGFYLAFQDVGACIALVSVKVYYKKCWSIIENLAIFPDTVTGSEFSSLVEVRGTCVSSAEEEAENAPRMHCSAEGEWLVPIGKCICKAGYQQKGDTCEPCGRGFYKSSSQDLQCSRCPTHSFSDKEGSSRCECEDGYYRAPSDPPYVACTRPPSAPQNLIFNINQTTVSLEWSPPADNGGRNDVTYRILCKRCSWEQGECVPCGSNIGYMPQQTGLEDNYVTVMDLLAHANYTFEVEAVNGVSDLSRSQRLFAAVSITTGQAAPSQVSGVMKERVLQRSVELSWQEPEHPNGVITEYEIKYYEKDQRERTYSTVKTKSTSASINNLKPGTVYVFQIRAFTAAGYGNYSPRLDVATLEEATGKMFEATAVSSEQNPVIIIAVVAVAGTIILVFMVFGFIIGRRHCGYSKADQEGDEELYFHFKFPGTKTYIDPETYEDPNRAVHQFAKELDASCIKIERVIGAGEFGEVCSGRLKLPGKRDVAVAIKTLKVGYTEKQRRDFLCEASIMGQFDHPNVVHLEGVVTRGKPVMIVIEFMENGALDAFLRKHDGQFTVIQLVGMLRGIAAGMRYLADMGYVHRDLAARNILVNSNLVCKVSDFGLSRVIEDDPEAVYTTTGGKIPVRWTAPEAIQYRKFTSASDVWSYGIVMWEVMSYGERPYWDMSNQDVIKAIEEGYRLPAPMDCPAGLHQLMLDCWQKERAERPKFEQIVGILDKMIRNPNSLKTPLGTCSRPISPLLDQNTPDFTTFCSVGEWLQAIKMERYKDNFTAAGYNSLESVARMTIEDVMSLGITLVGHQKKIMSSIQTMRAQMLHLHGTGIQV
# Source text: as §1
# [7] = molecular target: 320 wild-type protein kinases (Homo sapiens, UniProt P53350); settings: singlicate
# Sequence of 320 wild-type protein kinases (Homo sapiens, UniProt P53350) (P53350 whole entry): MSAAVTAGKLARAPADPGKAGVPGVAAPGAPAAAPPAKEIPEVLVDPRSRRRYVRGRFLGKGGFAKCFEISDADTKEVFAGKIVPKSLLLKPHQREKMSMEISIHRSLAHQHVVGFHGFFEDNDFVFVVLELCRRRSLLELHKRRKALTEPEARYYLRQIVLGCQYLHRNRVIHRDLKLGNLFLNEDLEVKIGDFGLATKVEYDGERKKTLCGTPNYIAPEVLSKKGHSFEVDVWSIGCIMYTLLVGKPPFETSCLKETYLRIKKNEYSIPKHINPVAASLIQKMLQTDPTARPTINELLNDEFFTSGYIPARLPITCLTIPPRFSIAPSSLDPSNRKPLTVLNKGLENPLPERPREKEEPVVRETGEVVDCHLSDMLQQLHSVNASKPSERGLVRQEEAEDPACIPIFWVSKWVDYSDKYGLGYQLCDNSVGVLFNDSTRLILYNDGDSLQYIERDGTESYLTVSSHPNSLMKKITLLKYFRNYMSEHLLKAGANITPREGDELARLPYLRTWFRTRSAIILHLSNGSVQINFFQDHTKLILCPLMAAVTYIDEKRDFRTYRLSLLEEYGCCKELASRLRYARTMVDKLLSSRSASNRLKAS
# Source text: as §1
# [8] = molecular target: 320 wild-type protein kinases (Homo sapiens, UniProt P29317); settings: singlicate
# Source text: as §1
# [9] = molecular target: 320 wild-type protein kinases (Homo sapiens, UniProt P23458); settings: JAK1 aa583-1154 wt, singlicate
# Sequence of 320 wild-type protein kinases (Homo sapiens, UniProt P23458) (P23458 whole entry, the tested form may be a part): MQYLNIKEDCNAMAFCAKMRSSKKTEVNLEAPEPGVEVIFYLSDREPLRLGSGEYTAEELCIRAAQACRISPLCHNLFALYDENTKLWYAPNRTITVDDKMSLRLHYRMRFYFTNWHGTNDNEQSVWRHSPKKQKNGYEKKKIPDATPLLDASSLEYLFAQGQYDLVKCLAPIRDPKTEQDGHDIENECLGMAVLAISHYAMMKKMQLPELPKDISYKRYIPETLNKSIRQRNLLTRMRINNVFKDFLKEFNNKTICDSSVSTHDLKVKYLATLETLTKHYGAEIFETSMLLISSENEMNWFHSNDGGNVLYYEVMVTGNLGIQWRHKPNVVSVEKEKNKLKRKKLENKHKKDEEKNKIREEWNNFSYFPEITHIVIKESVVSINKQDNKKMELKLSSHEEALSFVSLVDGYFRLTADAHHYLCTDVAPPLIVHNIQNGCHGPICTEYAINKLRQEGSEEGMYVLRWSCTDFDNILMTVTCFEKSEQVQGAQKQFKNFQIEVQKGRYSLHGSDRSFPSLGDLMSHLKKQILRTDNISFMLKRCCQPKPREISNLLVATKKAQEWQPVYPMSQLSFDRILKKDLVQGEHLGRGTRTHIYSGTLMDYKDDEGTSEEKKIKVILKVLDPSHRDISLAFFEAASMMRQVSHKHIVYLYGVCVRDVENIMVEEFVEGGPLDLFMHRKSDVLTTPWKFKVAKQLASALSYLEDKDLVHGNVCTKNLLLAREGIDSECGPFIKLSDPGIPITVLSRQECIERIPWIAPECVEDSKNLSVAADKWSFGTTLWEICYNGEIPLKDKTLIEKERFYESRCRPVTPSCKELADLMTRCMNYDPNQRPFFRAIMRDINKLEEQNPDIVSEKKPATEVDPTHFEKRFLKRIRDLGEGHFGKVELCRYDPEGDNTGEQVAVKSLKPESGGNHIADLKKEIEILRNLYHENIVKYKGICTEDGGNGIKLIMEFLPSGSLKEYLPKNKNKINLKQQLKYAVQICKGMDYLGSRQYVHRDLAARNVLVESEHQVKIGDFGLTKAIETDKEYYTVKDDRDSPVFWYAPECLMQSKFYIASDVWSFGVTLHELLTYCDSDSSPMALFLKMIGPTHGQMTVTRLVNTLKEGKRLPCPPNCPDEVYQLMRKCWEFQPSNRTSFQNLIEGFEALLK
# Source text: as §1
# [10] = molecular target: 320 wild-type protein kinases (Homo sapiens, UniProt P21802); settings: singlicate
# Sequence of 320 wild-type protein kinases (Homo sapiens, UniProt P21802) (P21802 22-821): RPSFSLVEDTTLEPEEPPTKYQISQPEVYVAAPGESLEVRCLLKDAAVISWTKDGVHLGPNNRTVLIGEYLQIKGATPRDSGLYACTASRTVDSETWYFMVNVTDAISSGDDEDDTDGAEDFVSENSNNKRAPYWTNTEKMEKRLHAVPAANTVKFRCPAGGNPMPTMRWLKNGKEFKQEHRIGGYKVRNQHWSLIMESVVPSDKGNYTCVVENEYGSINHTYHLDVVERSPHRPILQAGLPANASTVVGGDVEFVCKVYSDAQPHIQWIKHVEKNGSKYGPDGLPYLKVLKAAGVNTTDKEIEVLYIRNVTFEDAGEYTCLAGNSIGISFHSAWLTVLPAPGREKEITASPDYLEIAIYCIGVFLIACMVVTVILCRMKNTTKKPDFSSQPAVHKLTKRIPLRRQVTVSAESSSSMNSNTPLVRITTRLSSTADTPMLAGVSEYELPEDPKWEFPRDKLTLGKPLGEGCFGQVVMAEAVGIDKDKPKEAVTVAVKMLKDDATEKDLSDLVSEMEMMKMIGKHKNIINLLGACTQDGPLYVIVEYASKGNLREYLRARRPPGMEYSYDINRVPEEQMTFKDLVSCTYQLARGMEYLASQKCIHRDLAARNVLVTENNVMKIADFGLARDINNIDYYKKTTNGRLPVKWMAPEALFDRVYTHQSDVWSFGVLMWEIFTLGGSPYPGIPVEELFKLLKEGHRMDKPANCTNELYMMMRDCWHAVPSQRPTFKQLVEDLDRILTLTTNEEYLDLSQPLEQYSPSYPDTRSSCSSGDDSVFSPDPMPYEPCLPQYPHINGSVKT
# Source text: as §1
# [11] = molecular target: T2, 320 wild-type protein kinases (Homo sapiens, UniProt P43403); settings: kinase ZAP70, singlicate
# T2 sequence (P43403 1-619): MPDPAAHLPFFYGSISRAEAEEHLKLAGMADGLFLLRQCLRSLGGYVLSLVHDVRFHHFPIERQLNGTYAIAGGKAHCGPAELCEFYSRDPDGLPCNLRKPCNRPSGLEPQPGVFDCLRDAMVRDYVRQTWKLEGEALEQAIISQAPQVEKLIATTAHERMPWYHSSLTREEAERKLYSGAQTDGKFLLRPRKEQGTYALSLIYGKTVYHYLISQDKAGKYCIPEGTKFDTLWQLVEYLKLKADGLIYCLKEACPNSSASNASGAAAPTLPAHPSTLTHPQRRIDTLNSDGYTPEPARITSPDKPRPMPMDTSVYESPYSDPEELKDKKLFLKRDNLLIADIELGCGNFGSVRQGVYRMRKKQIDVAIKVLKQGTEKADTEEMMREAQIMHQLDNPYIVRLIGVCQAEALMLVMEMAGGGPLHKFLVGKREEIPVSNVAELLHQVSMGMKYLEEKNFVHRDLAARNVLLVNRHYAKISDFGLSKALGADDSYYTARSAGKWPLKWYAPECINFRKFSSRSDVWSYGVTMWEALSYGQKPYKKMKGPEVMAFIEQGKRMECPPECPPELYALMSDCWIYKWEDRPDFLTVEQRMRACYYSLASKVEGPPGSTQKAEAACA
# Source text: as §1
# [12] = molecular target: 320 wild-type protein kinases (Homo sapiens, UniProt Q9UM73); settings: ALK (GST-HIS-tag), singlicate
# Source text: as §1
Structure (SMILES),"Residual activity ([1]; NEK11, 1.0E-06 M)","Residual activity ([1]; NEK11, 1.0E-07 M)","Residual activity, TIE2 ([2]; assay conc. 1.0E-06 M)","Residual activity, TIE2 ([2]; assay conc. 1.0E-07 M)","Residual activity, S6K ([3]; assay conc. 1.0E-06 M)","Residual activity, S6K ([3]; assay conc. 1.0E-07 M)","Residual activity, RPS6KA3 ([4]; assay conc. 1.0E-06 M)","Residual activity, RPS6KA3 ([4]; assay conc. 1.0E-07 M)","Residual activity, SRPK1 ([5]; assay conc. 1.0E-06 M)","Residual activity, SRPK1 ([5]; assay conc. 1.0E-07 M)","Residual activity ([6]; EPHA7, 1.0E-06 M)","Residual activity ([6]; EPHA7, 1.0E-07 M)","Residual activity ([7]; PLK1, 1.0E-06 M)","Residual activity ([7]; PLK1, 1.0E-07 M)","Residual activity ([8]; EPHA2, 1.0E-06 M)","Residual activity ([8]; EPHA2, 1.0E-07 M)",Residual activity ([9]; 1.0E-06 M),Residual activity ([9]; 1.0E-07 M),"Residual activity ([10]; FGF-R2, 1.0E-06 M)","Residual activity ([10]; FGF-R2, 1.0E-07 M)",also measured
C#Cc1cc(Nc2ncnc3cc(I)ccc23)ccc1Cl [Compound 41],95 % of control,82 % of control,87 % of control,84 % of control,123 % of control,135 % of control,96 % of control,99 % of control,89 % of control,96 % of control,94 % of control,85 % of control,98 % of control,98 % of control,91 % of control,90 % of control,90 % of control,98 % of control,85 % of control,88 % of control,"Residual activity, ZAP70 ([11]; assay conc. 1.0E-06 M): 103 % of control; Residual activity, ZAP70 ([11]; assay conc. 1.0E-07 M): 111 % of control; Residual activity ([12]; 1.0E-06 M): 93 % of control; Residual activity ([12]; 1.0E-07 M): 102 % of control"
C#Cc1cc(Nc2ncnc3cc(OC)c(OC)cc23)ccc1Cl [Compound 45],103 % of control,106 % of control,82 % of control,111 % of control,121 % of control,122 % of control,115 % of control,119 % of control,97 % of control,100 % of control,58 % of control,84 % of control,77 % of control,91 % of control,81 % of control,87 % of control,102 % of control,111 % of control,69 % of control,87 % of control,"Residual activity, ZAP70 ([11]; assay conc. 1.0E-06 M): 104 % of control; Residual activity, ZAP70 ([11]; assay conc. 1.0E-07 M): 100 % of control; Residual activity ([12]; 1.0E-06 M): 63 % of control; Residual activity ([12]; 1.0E-07 M): 102 % of control"
